Reference: patent US12018093B2, “Hemiasterlin derivatives and antibody-drug conjugates including same” (priority 2017, dated 2024)
Entries after “also recorded” stand apart in the source; their conditions may differ.

How the values were obtained:
SU-DHL-1 cells = assay: Cellular toxicity test (1), CellTiter-Glo, SU-DHL-1; assay type: cell-based; conditions: Homo sapiens, 96 h, cultured 4 days, cell viability
Procedure: (§1) SU-DHL-1 cells (American Type Culture Collection, hereinafter, ATCC) and Karpas-299 cells (European Collection of Authenticated Cell Cultures, hereinafter, ECACC), which are human lymphoma cell lines, were cultured in RPMI 1640 (GIBCO) containing 10% fetal bovine serum (MP Biomedicals) (hereinafter, referred to as the “culture medium” in this test). SU-DHL-1 cells and Karpas-299 cells were prepared to be 2×10^6 cells/mL in the culture medium, and were added to a 96 well microplate for cell culturing in an amount of 50 μL for each well. Compounds of Examples or hemiasterlin 4 times diluted with the culture medium in 8 stages were added to the microplate in an amount of 50 μL for each well. To wells to which the test substance was not added, the culture medium was added in an amount of 50 μL for each well. These were cultured at 37 degree under 5% CO2 for 4 days. After culturing, the microplate was taken out from the incubator, and was left at rest at room temperature for 10 minutes. To each well, 50 μL of CellTiter-Glo Luminescent Cell Viability Assay (Promega) was added, and the resultant mixture was stirred. This mixture was incubated at a dark place for 20 minutes. Using a microplate luminometer, luminescence at each well was measured, thereby calculating the cell viability for each concentration of the test substance. From the cell viability, the IC50 value of the test substance was determined.
(§2) The IC50 value was calculated by the following formula: IC50(nM)=antilog(LOG10(a/b)×(e−d)/(c−d)+LOG10b) • a: concentration a of test substance • b: concentration b of test substance • c: cell viability upon adding test substance with concentration a • d: cell viability upon adding test substance with concentration b • e: intermediate value between maximum and minimum among cell viabilities upon • adding test substances with different concentrations (a and b are concentrations crossing the cell viability e, and a>b is indicated).
(§3) The cell viability at each concentration was calculated by the following formula: Cell Viability (%)=a′/b′×100 • a′: mean value of luminescence amount of wells to which test substance was added (n=6) • b′: mean value of luminescence amount of wells to which test substance was not added (n=6) • (n represents the number of evaluations performed per test substance concentration).

SK-BR-3 cells = assay: Cellular toxicity test (2), CellTiter-Glo, SK-BR-3; assay type: cell-based; conditions: Homo sapiens, 72 h, cultured 3 days, cell viability
Procedure: as §2, §3
SK-BR-3 cells (ATCC), which are a human breast cancer cell line, were cultured in McCoy's 5A (GIBCO) containing 10% fetal bovine serum (MP Biomedicals) (hereinafter, referred to as the “culture medium” in this test). SK-BR-3 cells were prepared to be 2×10^6 cells/mL in the culture medium, added to a 96 well microplate for cell culturing in an amount of 50 μL for each well, and cultured at 37 degree under 5% CO2 overnight, and then, compounds of Examples or hemiasterlin 4 times diluted with the culture medium in 8 stages were added to the microplate in an amount of 50 μL for each well. To wells to which the test substance was not added, the culture medium was added in an amount of 50 μL for each well. These were cultured at 37 degree under 5% CO2 for 3 days. After culturing, the microplate was taken out from the incubator, and was left at rest at room temperature for 10 minutes. 50 μL of CellTiter-Glo Luminescent Cell Viability Assay (Promega) was added, and the resultant mixture was stirred. This mixture was incubated at a dark place for 20 minutes. Using a microplate luminometer, luminescence at each well was measured, thereby calculating the cell viability for each concentration of the test substance. The IC50 value was calculated in accordance with the method described in Test Example 3.

Karpas-299 cells = assay: Cellular toxicity test (1), CellTiter-Glo, Karpas-299; assay type: cell-based; conditions: Homo sapiens, 96 h, cultured 4 days, cell viability
Procedure: as §1, §2, §3

porcine tubulin = porcine tubulin (Sus scrofa, UniProt P02550+P02554); assay: Activity for inhibiting microtubule polymerization using porcine tubulins (1); assay type: biochemical; design: purchased Cytoskeleton Inc. BK006P; conditions: compound 0.91 μM; absorbance at 340 nm, 37° C.; FIG. 1 and FIG. 2
porcine tubulin, sequence (P02554 whole entry): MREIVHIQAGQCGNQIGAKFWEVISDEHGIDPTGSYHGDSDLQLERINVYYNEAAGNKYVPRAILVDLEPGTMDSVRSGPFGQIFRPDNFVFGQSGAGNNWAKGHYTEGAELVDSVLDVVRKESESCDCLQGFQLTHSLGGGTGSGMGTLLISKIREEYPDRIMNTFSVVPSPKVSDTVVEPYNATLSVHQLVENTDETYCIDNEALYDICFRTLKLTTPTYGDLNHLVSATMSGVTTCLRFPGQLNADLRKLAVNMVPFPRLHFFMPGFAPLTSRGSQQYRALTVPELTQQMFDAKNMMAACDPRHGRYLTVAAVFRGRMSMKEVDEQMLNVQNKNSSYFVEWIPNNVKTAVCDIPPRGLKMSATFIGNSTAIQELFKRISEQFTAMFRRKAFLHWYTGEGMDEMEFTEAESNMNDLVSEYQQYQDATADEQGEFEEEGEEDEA
porcine tubulin, sequence (P02550 whole entry): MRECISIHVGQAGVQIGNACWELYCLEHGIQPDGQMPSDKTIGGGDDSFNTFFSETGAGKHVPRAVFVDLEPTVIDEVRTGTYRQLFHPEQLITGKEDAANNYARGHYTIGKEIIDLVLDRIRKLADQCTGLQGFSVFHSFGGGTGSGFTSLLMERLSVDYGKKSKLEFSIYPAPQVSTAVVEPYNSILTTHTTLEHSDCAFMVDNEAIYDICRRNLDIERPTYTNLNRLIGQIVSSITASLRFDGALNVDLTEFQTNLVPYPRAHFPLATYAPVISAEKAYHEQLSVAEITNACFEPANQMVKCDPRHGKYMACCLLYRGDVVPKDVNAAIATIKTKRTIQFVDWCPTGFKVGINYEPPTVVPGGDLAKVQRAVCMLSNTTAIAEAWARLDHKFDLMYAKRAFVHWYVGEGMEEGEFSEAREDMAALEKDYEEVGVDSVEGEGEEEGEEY

[1] = Pharmacokinetic evaluation test using mice; assay type: in vivo
Procedure: A pharmacokinetic evaluation test was performed by single intravenous administration of Example 4 at a dose of 1.0 mg/kg to mice. A calibration curve was made from measurements of Example 4 with known concentration, and by interpolating measurements of each specimen to this, the amount of the compound contained in unit volume of each plasma was calculated using LC-MS. Pharmacokinetics of compound 14 and hemiasterlin were similarly evaluated.
(n.d. in the tables means less than the detection limit value (0.5 ng/mL).)

in vitro = conditions: PAMPA, pH 7.4
Procedure: By the parallel artificial membrane permeability assay (PAMPA), the membrane permeability of compounds of Examples was examined as follows: To the donor plate, System solution (pION inc.) and GIT Lipid-0 (pION inc.) were added in an amount of 200 μL and 4 μL for each well, respectively. To the acceptor plate, Acceptor Sink Buffer (pION inc.) was added in an amount of 200 μL. Both plates were superposed and incubated at 37° C. for 4 hours, and then, UVs in the solutions on the side of acceptor and on the side of donor were measured with an UV plate reader (190 to 500 nm). Compounds with poor UV absorption were measured by LC-MS. The permeability coefficient Pe (10^−6 cm/sec) of the drug was calculated by the following formula.

## CCOC(=O)[C@@H](CCC(=O)O)NC(=O)/C(C)=C/[C@H](C(C)C)N(C)C(=O)[C@@H](NC(=O)[C@@H](NC)C(C)(C)c1cn(C)c2ccccc12)C(C)(C)C [Example 14]
SU-DHL-1 cells
  IC50: 0.24 nM
SK-BR-3 cells
  IC50: 1.03 nM
Karpas-299 cells
  IC50: 0.12 nM
Porcine tubulin
  activity for inhibiting microtubule polymerization: exhibited activities for inhibiting microtubule polymerization; also recorded: exhibited polymerization inhibitory activity concentration-dependently
[1]; mouse, plasma, 1 mg/kg, single intravenous administration
  half-life: < 30 min
[1]; single intravenous administration of Example 14, 0.5 hr, animal 1
  Blood concentration of Example 14: n.d. (less than the detection limit value (0.5 ng/mL))
[1]; single intravenous administration of Example 14, 0.5 hr, animal 2
  Blood concentration of Example 14: n.d. (less than the detection limit value (0.5 ng/mL))
[1]; single intravenous administration of Example 14, 0.5 hr, animal 3
  Blood concentration of Example 14: n.d. (less than the detection limit value (0.5 ng/mL))
[1]; single intravenous administration of Example 14, 0.5 hr
  Blood concentration of Example 14, mean: n.d. (less than the detection limit value (0.5 ng/mL))
[1]; single intravenous administration of Example 14, 2 hr, animal 1
  Blood concentration of Example 14: n.d. (less than the detection limit value (0.5 ng/mL))
[1]; single intravenous administration of Example 14, 2 hr, animal 2
  Blood concentration of Example 14: n.d. (less than the detection limit value (0.5 ng/mL))
[1]; single intravenous administration of Example 14, 2 hr, animal 3
  Blood concentration of Example 14: n.d. (less than the detection limit value (0.5 ng/mL))
[1]; single intravenous administration of Example 14, 2 hr
  Blood concentration of Example 14, mean: n.d. (less than the detection limit value (0.5 ng/mL))
[1]; single intravenous administration of Example 14, 6 hr, animal 1
  Blood concentration of Example 14: n.d. (less than the detection limit value (0.5 ng/mL))
[1]; single intravenous administration of Example 14, 6 hr, animal 2
  Blood concentration of Example 14: n.d. (less than the detection limit value (0.5 ng/mL))
[1]; single intravenous administration of Example 14, 6 hr, animal 3
  Blood concentration of Example 14: n.d. (less than the detection limit value (0.5 ng/mL))
[1]; single intravenous administration of Example 14, 6 hr
  Blood concentration of Example 14, mean: n.d. (less than the detection limit value (0.5 ng/mL))
[1]; single intravenous administration of Example 14, 24 hr, animal 1
  Blood concentration of Example 14: n.d. (less than the detection limit value (0.5 ng/mL))
[1]; single intravenous administration of Example 14, 24 hr, animal 2
  Blood concentration of Example 14: n.d. (less than the detection limit value (0.5 ng/mL))
[1]; single intravenous administration of Example 14, 24 hr, animal 3
  Blood concentration of Example 14: n.d. (less than the detection limit value (0.5 ng/mL))
[1]; single intravenous administration of Example 14, 24 hr
  Blood concentration of Example 14, mean: n.d. (less than the detection limit value (0.5 ng/mL))
In vitro
  Papp: 4.5 ×10⁻⁶ cm/s
